Measurements from US7279497B2, “Benzopyran derivatives substituted with secondary amines including imidazole, their preparation and pharmaceutical compositions containing them” (Korea Research Institute of Chemical Technology, priority 2002, dated 2007).

What was measured:
isolated rat aorta = experiment: Vasorelaxation effects on isolated blood vessels (methoxamine induced vasoconstriction); settings: rat aorta constricted with methoxamine (3 μM)
Experimental: The following experiment was conducted to examine whether the compounds of the formula 1 have vasorelaxation effects.
Male Sprague-Dawly rats (350-450 g, obtained from the Experimental Animal Team of the Korea Research Institute of Chemical Technology) were knocked unconscious by hitting the occipital region, sacrificed by cervical dislocation, and underwent thoracotomy. After being quickly removed, the thoracic aorta was deprived of the adipose tissue and cut into aortic rings of 3 mm width. The aorta was lightly rubbed with a modified Krebs Henseleit buffer (Physiological Salt Solution, PSS) soaked cotton club to remove the inner epithelial layer therefrom. While being suspended in an organ bath containing a physiological buffer, the vascular tissue was allowed to equilibrate under a resting tension of 2 g and then, stand for 1 hour at 37° C. for stabilization with a supply of a carbogen consisting of 95% O2-5% CO2.
Thereafter, the vascular tissue was constricted with 10^−5 M phenylephrine and washed several times with PSS and this procedure was repeated again to ensure the stable reactivity of vascular smooth muscle to repetitive constriction/dilatation.
In addition, 3×10^−6 M methoxamine was used to induce an intensive constriction in the vascular smooth muscle. When the vasoconstriction induced by the methoxamine reached and maintained a maximum, test compounds and controls were cumulatively added to the organ baths in concentrations of 1, 3, 10 and 30 μM so as to induce vasodilatation. Cromakalim, BMS-180448, and BMS-191095 were used as the controls.
Following the addition of test compounds, the change in the maximal constriction induced by methoxamine was calculated to plot a concentration-relaxation response curve. Through a linear regression analysis, IC50, the drug concentration at which the vascular tissue is 50% dilated, was obtained for each compound.

isolated rat hearts = experiment: Cardioprotective activity in isolated ischemic rat heart (Langendorff); settings: 10 μM
Experimental: In order to determine whether the compounds of the chemical formula 1 are protective for ischemic hearts in vitro, experiments determining the anti-ischemic effects of the compounds on isolated rat hearts were conducted as follows.
For all in vitro studies, isolated rat hearts were used according to the published methods after some modification [HJ Ring, Arzneim.-Forsch./Drug Res. 39 (II), 1535 (1989): T. Krzeminski, et al., J. Pharmacological Methods, 25, 95, (1991)]
Male Sprague-Dawley rats weighing 300-450 g were anesthetized with sodium pentobarbital (100 mg/kg, i.p.). The tail vein was injected with heparin (1,000 U/kg) and then the trachea was intubated. While rats were mechanically ventilated with a rodent ventilator (Model 7025, Ugobasile, Italy), their hearts were perfused in situ with oxygenated modified Krebs-Henseleit bicarbonate buffer (described herein) by retrograde aortic cannulation. The hearts were then excised and moved to a Langendorff apparatus (H.S.E., Germany), where they were perfused with oxygenated modified Krebs-Henseleit bicarbonate buffer containing (in mM) NaCl 116, NaHCO3 24.9, KCl 4.7, MgSO4 1.1, KH2PO4 1.17, CaCl2 2.52, glucose 8.32 and pyruvate 2.0 at a constant perfusion pressure (85 mm Hg). A latex balloon filled with solvent (ethanol:water=1:1 (v/v)) and attached to a metal cannula was placed in the left ventricle through pulmonary vein and connected to a Isotec pressure transducer (H.S.E., Germany) for measurement of left ventricular pressure (LVP). The hearts were allowed to equilibrate for 15 min, at which time left ventricular end-diastolic pressure (EDP) was adjusted to 5 mm Hg and this balloon volume was maintained throughout the experiment. Then, baseline contractile function, heart rate (HR), and coronary flow (CF) (extracorporeal electromagnetic flow probe, Narco Bio-System, U.S.A.) were measured. Cardiac contractile function was calculated by subtracting LVEDP from LV peak systolic pressure (LVSP), yielding developed pressure (LVDP). Double product (DP), another important parameter for assessing cardiac performance, was calculated by multiplying HR by LVDP. Throughout the experiment, all these parameters were measured, and calculated before and 10 min after pretreatment with each compound and 30 min after the onset of reperfusion with buffer. Data on reperfusion DP were further expressed as the percentage to pretreatment DP.
After stabilization for 15 min, the hearts were pretreated for 10 min with respective drugs (10 μM, 0.04% DMSO) or vehicle (0.04% DMSO) before onset of global ischemia; test agents were administered directly into the oxygenator of the Langendorff apparatus immediately above the aortic root in a retrograde fashion as solutions in the perfusate. We then rendered the hearts globally ischemic by completely shutting off the perfusate for 30 min. Severity of ischemia was determined as the time to contracture (TTC, min) during global ischemia in which the first 5 mmHg increase in EDP was observed. Then, the hearts were reperfused and, 30 min later, contractile function (LVDP, DP) and cumulative reperfusion lactate dehydrogenase (LDH) release were measured. LDH was measured as a sensitive index for loss of cell viability with a kit supplied by Boerhinger Mannheim based on the technique of Wroblewski and LaDue [F. Wroblewski and J S. La Due, Proc Soc Exp Biol Med 90, 210, (1955)].

ischemic hearts = experiment: Cardioprotective activity in ischemic heart model of anesthetized rats; settings: Rat in vivo, 0.3 mg/kg i.v.
Experimental: In order to determine whether the compounds of formula 1 are protective for ischemic hearts, experiments determining the anti-ischemic effects of the compounds on rats were conducted as follows. Male rats (350-450 g, obtained from the Experimental Animal Team of the Korea Research Institute of Chemical Technology) were anesthetized by the intraperitoneal injection of pentobarbital at a dose of 75 mg/kg. After trachetomy, the rats were rendered to respire artificially at a rate of 60/min with a stroke volume of 10 ml/kg. Cannulars were inserted into the fermoral vein and the fermoral artery and used for drug administration and blood pressure measurement, respectively. In the ischemic myocardial injury models, the body temperature has an important influence on the results. To avoid the change in the body temperature, a body temperature measuring probe was inserted into the rectum of each rat and the body temperature was constantly kept at 37° C. with the aid of a homeothermic blanket control unit. Afterwards, during testing, a continuous measurement was made of the mean arterial blood pressures and heart rates from the rats. For the measurement of the blood pressure, a pressure transducer (Statham P23XL, Grass Ins., MA, U.S.A.) was used. The heart rate was measured by a tachometer (ECG/RATE Coupler, Hugo Sachs Electronic, German) identified as Biotachometer. In addition, all of the changes occurring were continuously recorded through the Gould 2000 chart recorder ([…] Linearcorder W R 3310, Hugo Sachs Electronic). The left coronary artery was occluded according to the Selye H. method as follows. The rats underwent a left thoracotomy operation for partial opening of the chest and the right-side chest was pressurized by the middle finger of the left hand to push the heart out. Immediately after the left anterior descending coronary artery hereinafter referred to as (LAD) was carefully stitched using a suture needle with 5-0 silk ligature, the heart was then repositioned in the thoracic cavity while both ends of the ligature were situated outside. The opposite ligature ends were passed through a PE tube (PE100, 2.5 cm) and allowed to stand loose for 20 min for stabilization. Via the cannula inserted into the femoral vein, vehicles or drugs were administered into the rats which were rendered to stand for 30 min in order to sufficiently elicit the efficacies of the drugs. […] From the images input into the computer, the area of the normal blood stream tissue region which appeared blue in a computer monitor and the area which appeared colorless were measured. The percentage of the colorless area to the total area of each slice was calculated and multiplied by the weight of each slice to determine the area at risk (AAR) of each slice. […]

rat brain homogenate = experiment: Inhibitory activity against iron-induced lipid peroxidation (MDA); assay type: biochemical; settings: 30 μM, FeCl2 400 μm
Experimental: In order to examine whether the compounds of the formula 1 suppress the iron-induced lipid peroxidation, experiments were conducted as follows.
The rat brain was homogenized in a Krebs buffer (15 mM HEPES, 10 mM glucose, 140 mM NaCl, 3.6 mM KCl, 1.5 mM CaCl2, 1.4 mM KH2PO4, 0.7 mM MgCl2, pH 7.4) and the supernatant separated by centrifugation at 12,000 rpm for 10 min was used for further experiments. FeCl2 was added to a final concentration of 400 μm in the brain homogenate which was then allowed to stand at 37° C. for 30 min. for the facilitation of oxidation. Each of the test compounds was added at a concentration of 30 μM and vehicle was used as a control.
Iron facilitates the oxidation of the brain homogenate to produce malondialdehyde (MDA), a lipid peroxidation product. Thus, the lipid peroxidation was determined by MDA quantification. The inhibitory effect of the test compounds against the lipid peroxidation was evaluated by calculating MDA reduction rate of the test compounds compared with that of the control group.
Typically, the MDA quantification is achieved by reacting samples with 2-thiobarbituric acid (TBA) and measuring the absorbance at 530 nm. However, this method is unsuitable to treat samples on a large scale because of a boiling step. Thus, in this experiment, N-methyl-2-phenylindole was used instead of TBA. […] Bioxytech^R LPO-586 Kit was used for MDA quantification.

[1] = test system: HUVECs (Human umbilical vein endothelial cells); experiment: Inhibitory effects on HUVEC tube formation; assay type: cell-based;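 on tube formation: from minus no inhibition up to plus-plus-plus complete inhibition versus vehicle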
Experimental: The Inhibitory effects of the compounds of the formula 1 on angiogenesis were meassured by the vascular tube formation assay of HUVECs (Human umbilical vein endothelial cells), which is one of the major angiogenic steps.
HUVECs were isolated from human umbilical vein, and cultured. HUVECs within passage 5 from confluent cultures were detached, and plated onto a layer of a bFGF (basic fibroblast growth factor)-reduced and polymerized Matrigel. Matrigel cultures were incubated with or without the compounds of formula 1, and the changes of cell morphology were captured through a phase contrast microscope and photographed.

SPF SD rats = settings: rat, in vivo, po;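 further: Six-week-old animals, two per group, followed across an observation period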
[2] = test system: cerebral cortical neurons; experiment: Protective activity against iron-induced neuronal damage (LDH release); assay type: cell-based; settings: Rattus norvegicus, Cortical neurone, FeSO4 50 μM, 24 hours
Experimental: In order to examine whether the compounds of the formula 1 suppress the iron-induced neuronal damage and death, experiments were conducted as follows.
From the brains of 17-18 day-old rat embryos, cerebral cortical neurons were isolated and then, cultured at 37° C. for 7-9 days in a 5% CO2 incubator. The cortical cell cultures were washed twice with a minimum essential medium (MEM) to reduce the serum concentration to 0.2% and pre-treated with test compounds at 30, 7.5, 1.875, and 0.469 μM of final concentrations, each for 30 min. The test compounds were dissolved in DMSO and diluted in a medium. At this time, the final concentration of DMSO was not allowed to exceed 0.2%. For a control group, only vehicle was applied.
After the pre-treatment with test compounds or vehicle, FeSO4 was added to a final concentration of 50 μM, and the cultures were maintained for 24 hours in a CO2 incubator. During incubation, lactate dehydrogenase (LDH) was released into the medium upon neuronal death by the oxidative toxicity of iron. The extent of neuronal damage was assessed by measuring the amount of LDH released into the media. The protective effect of the compounds of interest on neurons was evaluated by calculating the reduction rate of released LDH of treated group compared with that of the control group, and IC50 was calculated as the least linear regression analysis of dose-response curve.

| Compound | IC50 (isolated rat aorta) [µM] | LDVP × HR (%) (isolated rat hearts; 30 min reperfusion, % of pretreatment DP) | TTC (time to contracture) (isolated rat hearts; global ischemia) [min] | EDP (isolated rat hearts; reperfusion) [MmHg] | LDH (reperfusion release) (isolated rat hearts; reperfusion) [U/g] | AAR/LV (%) (ischemic hearts) | IZ/AAR (%) (ischemic hearts) | % Inhibition of lipid peroxidation by iron (rat brain homogenate) [%] | Tube formation ([1]; 10 μM) | Tube formation ([1]; 100 μM) | clinical symptoms, body weight and mortality (SPF SD rats) | inhibition at 30 µM ([2]; 30 μM, read-out: Neuroprotection inhibition % (LDH release)) [%] | IC50 ([2]; read-out: Neuroprotection IC50) [µM] | inhibitory effect on HUVEC tube formation ([1]; 10 uM) | inhibitory effect on HUVEC tube formation ([1]; 100 uM) |
| --- | --- | --- | --- | --- | --- | --- | --- | --- | --- | --- | --- | --- | --- | --- | --- |
| CC1(C)Oc2ccc(C#N)cc2[C@@H](N=C(NC#N)Nc2ccc(Cl)cc2)[C@@H]1O [BMS-180448, reference compound] | 1.38 | 67.6 | 27.8 | 16.5 | 17.2 | 38.8 | 39.1 | – | – | – | – | – | – | – | – |
| COC(OC)[C@@]1(C)Oc2ccc(N)cc2[C@@H](N(Cc2ncc[nH]2)c2ccc(Cl)cc2)[C@@H]1O [Example 24, (2S,3S,4R)-6-amino-3,4-dihydro-2-dimethoxymethyl-3-hydroxy-2-methyl-4-[N-(4-chlorophenyl)-N-(1H-imidazol-2-ylmethyl)amino]-2H-1-benzopyran] | – | – | – | – | – | – | – | 83 | + | + | no significant changes | – | – | – | – |
| COC(OC)[C@@]1(C)Oc2ccc([N+](=O)[O-])cc2[C@H](N(Cc2ncc[nH]2)c2ccc(Cl)cc2)[C@H]1O [Example 2, (2S,3R,4S)-3,4-dihydro-2-dimethoxymethyl-3-hydroxy-2-methyl-6-nitro-4-[N-(4-chlorophenyl)-N-(1H-imidazol-2-ylmethyl)amino]-2H-1-benzopyran] | – | – | – | – | – | – | – | – | ++ | +++ | no significant changes | 92 | 6.2 | strong inhibition | complete inhibition |
| COC(OC)[C@@]1(C)Oc2ccc(N)cc2[C@@H](N(Cc2ncc[nH]2)c2ccc(C(F)(F)F)cc2)[C@@H]1O [Example 25, (2S,3S,4R)-6-amino-3,4-dihydro-2-dimethoxymethyl-3-hydroxy-2-methyl-4-[N-(4-trifluoromethylphenyl)-N-(1H-imidazol-2-ylmethyl)amino]-2H-1-benzopyran] | – | – | – | – | – | – | – | 97 | +/− | +/− | no significant changes | – | – | – | – |
